Measurements as given in the NIST ThermoML archive (doi:10.1021/acs.jced.7b00354).
Values joined by “and” are separate entries in the source; they are usually repeats but may differ in a detail not shown here. Equal values may be shown once. ± gives the expanded uncertainty stated by the source.

Details: Transpiration method

CC1=CC(=O)C=CC1=O [2,5-cyclohexadiene-1,4-dione, 2-methyl]
Details | vapor or sublimation pressure
282.2 K, Crystal | 0.00318 ± 0.00036 kPa
285.6 K, Crystal | 0.00523 ± 0.00057 kPa and 0.0051 ± 0.00055 kPa
286.8 K, Crystal | 0.00566 ± 0.00061 kPa
288.5 K, Crystal | 0.00664 ± 0.00073 kPa and 0.00678 ± 0.00074 kPa
290.8 K, Crystal | 0.0091 ± 0.00099 kPa
295.2 K, Crystal | 0.01426 ± 0.0015 kPa
300.4 K, Crystal | 0.02498 ± 0.0027 kPa
305.3 K, Crystal | 0.04235 ± 0.0046 kPa
310.2 K, Crystal | 0.06335 ± 0.0068 kPa
312.9 K, Crystal | 0.08525 ± 0.0092 kPa
315.2 K, Crystal | 0.1054 ± 0.011 kPa
317.9 K, Crystal | 0.1305 ± 0.014 kPa
320.1 K, Crystal | 0.1774 ± 0.019 kPa
322 K, Crystal | 0.2004 ± 0.022 kPa
325.1 K, Crystal | 0.2769 ± 0.03 kPa
327.8 K, Crystal | 0.3444 ± 0.037 kPa
330.1 K, Crystal | 0.4336 ± 0.046 kPa
331.6 K, Crystal | 0.4466 ± 0.048 kPa
332.1 K, Crystal | 0.5012 ± 0.058 kPa
335.2 K, Crystal | 0.6342 ± 0.068 kPa
336.7 K, Crystal | 0.7271 ± 0.078 kPa
343.2 K, Liquid | 1.019 ± 0.11 kPa
347.2 K, Liquid | 1.264 ± 0.13 kPa
351.2 K, Liquid | 1.552 ± 0.17 kPa
355.1 K, Liquid | 1.947 ± 0.21 kPa
356.8 K, Liquid | 2.104 ± 0.22 kPa
359.1 K, Liquid | 2.373 ± 0.25 kPa
363.1 K, Liquid | 2.94 ± 0.31 kPa

O=C1C=CC(=O)C=C1 [1,4-benzoquinone]
Crystal
Details | vapor or sublimation pressure
290.2 K | 0.01002 ± 0.0011 kPa
293.4 K | 0.01343 ± 0.0015 kPa
297.5 K | 0.02081 ± 0.0023 kPa
298.5 K | 0.02319 ± 0.0025 kPa
301.4 K | 0.03014 ± 0.0032 kPa
303.1 K | 0.03408 ± 0.0037 kPa
307.3 K | 0.05078 ± 0.0054 kPa
308.3 K | 0.0527 ± 0.0057 kPa
310.2 K | 0.06526 ± 0.007 kPa
313.3 K | 0.07951 ± 0.0085 kPa
314.1 K | 0.08416 ± 0.0091 kPa
317.3 K | 0.1098 ± 0.012 kPa
320.1 K | 0.1364 ± 0.015 kPa
323 K | 0.1783 ± 0.019 kPa
323.3 K | 0.1841 ± 0.02 kPa
324.2 K | 0.1861 ± 0.02 kPa
327.2 K | 0.2502 ± 0.027 kPa and 0.2417 ± 0.026 kPa
328.1 K | 0.2659 ± 0.028 kPa
330.3 K | 0.3065 ± 0.033 kPa
333.2 K | 0.3846 ± 0.041 kPa and 0.3832 ± 0.041 kPa
334.2 K | 0.4116 ± 0.044 kPa
338.1 K | 0.5504 ± 0.059 kPa
338.2 K | 0.5497 ± 0.059 kPa and 0.5525 ± 0.059 kPa
